For the experiment, the system named is IGROV1 complex spheroids (HUVEC, MSC), viability % test/control. Nature of the experiment: Anticancer human tumor IGROV1 cell line growth inhibition [GQUAD].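 For all read-outs here: spheroids exposed to compounds for 7 days before readout.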 The note with it: for viability, T/C: stronger effect = lower value. The source says: DNA G-quadruplex Stabilizer Agents in Combinations in Complex Spheroids
A high-throughput screen of multi-cell type tumor spheroids was designed to identify active combinations of DNA G-quadruplex stabilizer agents and targeted small molecules. Complex spheroids include a stromal component modeled by human endothelial cells (HUVEC) and fibroblasts modeled by human mesenchymal stem cells (MSCs). The concentration ranges selected for each drug and investigational agent were based upon clinically achievable concentrations if the clinical Cmax of the agent was known.
Compounds. The drugs and investigational agents: pidnarulex (CX-5461; NSC782164), APTO-253 (NSC789042), BRACO-19 (NSC847499), peposertib (NSC802822), ceralasertib (NSC780249), elimusertib (NSC800525), camonsertib (NSC841442), AZD-1390 (NSC803789), olaparib (NSC753686), talazoparib (NSC767125), ART-558 (NSC835418), sotorasib (NSC818433), MRTX-1133 (NSC836407), SN-38 (NSC673596), topotecan (NSC609699), etoposide (NSC141540), doxorubicin (NSC123127), gemcitabine (NSC613327), 5-fluorouracil (NSC19893), paclitaxel (NSC125973), vemurafenib (NSC761431), panobinostat (NSC761190), R-306465 (JNJ-16241199; NSC773264), adavosertib (NSC754352), TP-3654 (NSC805149), carboplatin (NSC241240), KSQ-4279 (NSC840948), and staurosporine (NSC755774) were obtained from the National Cancer Institute (NCI) Developmental Therapeutics Program Chemical Repository (34). The FDA-approved anticancer drug set is available from the NCI Developmental Therapeutics Program. […] The stock solutions were prepared in dimethyl sulfoxide (DMSO, Sigma-Aldrich, St. Louis, MO, cat. D2650) at 800-fold the tested concentration and stored at -70 degrees C prior to their use. All drugs and investigational agents were tested over a range starting from a high concentration at or near the clinical Cmax and decreasing in half-log increments. If the clinical Cmax for an agent had not been determined, the highest concentration tested was 10 microM.
2.3 Cell Culture. All cells were maintained in an incubator at 37 degrees C and 5% CO2 with 95% humidity. The PDC lines were cultured according to standard operating procedures established by the NCI PDMR. All PDCs were thawed and cultured in Matrigel-coated flasks prepared with a working solution of 1X Ham's F-12 nutrient mix, without supplementation (Invitrogen, cat. 11765054), 100 U/mL penicillin-streptomycin (Invitrogen, cat. 15140122), and 2.5% Matrigel (Corning Inc., cat. 354248) for the first three passages. The 857933-349-R-J2-PDC line was cultured in 6C/Colon 1B media, which includes advanced DMEM/F-12 (Thermo Fisher Scientific, cat. 12634028), 10 mM HEPES (Thermo Fisher Scientific, cat. 15630080), 1X GlutaMAX supplement (Thermo Fisher Scientific, cat. 35050061), 0.1 mg/mL primocin (InvivoGen, cat. ant-pm-2), 10% defined fetal bovine serum, heat inactivated (HyClone Laboratories Inc., cat. SH30070.03HI), 50% L-WRN conditioned media (ATCC, cat. CRL-3276), 1.25 mM N-Acetyl-L-cysteine (Sigma-Aldrich, cat. A9165), 10 mM nicotinamide (Sigma-Aldrich, cat. N0636), 1X B-27 supplement (Thermo Fisher Scientific, cat. 17504044), 1X N-2 supplement (Thermo Fisher Scientific, cat. 17502048), 10 microM Y-27632 dihydrochloride (Tocris Bioscience, cat. 1254), and 50 ng/mL human EGF recombinant protein (Thermo Fisher Scientific, cat. PHG0311). The 485176-168-R4-J1-PDC line was cultured in Panc media, which includes all 6C/Colon 1B media components plus 100 ng/mL human FGF-10 (Thermo Fisher Scientific, cat. 100-26), 500 nM SB-431542 (Selleckchem, cat. S1067), and gastrin (Tocris, cat. 3006).
[…]

Results on 5 compounds are retold here after PubChem BioAssay AID2060486 (Molecular Pharmacology Branch, DTP, NCI, 2025).

Values joined by “and” are separate entries in the source; they are usually repeats but may differ in a detail not shown here. Equal values may be shown once.

By IC50 is commonly meant the midpoint of a concentration-inhibition curve. What is called viability, T/C is the result in the treated group divided by that in the control group, in per cent.

Turning to `Cc1cccc(N(C)C(=O)C2C(O)CCN2c2nc(C)cc(C(F)(F)F)c2C#N)c1` (stereo not given) + Cc1cnc(CNC(=O)c2c(=O)c3ccc(N4CCCN(C)CC4)nc3n3c2sc2ccccc23)cn1, the IC50 is, setting by setting: (curve of first compound, second compound 0.0316 µM) > 10000 nM; (curve of first compound, second compound 0.1 µM) < 31.6 nM; (curve of first compound, second compound 0.316 µM) < 31.6 nM; (curve of first compound, second compound 1 µM) < 31.6 nM; (curve of first compound, second compound 3.16 µM) < 31.6 nM; (curve of first compound, second compound 10 µM) < 31.6 nM. In addition, the viability, T/C (second compound 0.0316 µM, first compound 0.0316 µM) was 66.2%; the viability, T/C (second compound 0.0316 µM, first compound 0.1 µM) was 68%; the viability, T/C (second compound 0.0316 µM, first compound 0.316 µM) was 65.6%; the viability, T/C (second compound 0.0316 µM, first compound 1 µM) is 42%; the viability, T/C (second compound 0.0316 µM, first compound 3.16 µM) is 76.5%; the viability, T/C (second compound 0.0316 µM, first compound 10 µM) is 63%. The viability, T/C by setting is: (second compound 0.1 µM, first compound 0.0316 µM) 45.2%; (second compound 0.1 µM, first compound 0.1 µM) 38.2%; (second compound 0.1 µM, first compound 0.316 µM) 38.2%; (second compound 0.1 µM, first compound 1 µM) 31.6%; (second compound 0.1 µM, first compound 3.16 µM) 39.6%; (second compound 0.1 µM, first compound 10 µM) 34.5%. Besides, the viability, T/C is 24.8% (second compound 0.316 µM, first compound 0.0316 µM); 23.1% (second compound 0.316 µM, first compound 0.1 µM); 20.6% (second compound 0.316 µM, first compound 0.316 µM); 26.8% (second compound 0.316 µM, first compound 1 µM); 29.3% (second compound 0.316 µM, first compound 3.16 µM); 17.3% (second compound 0.316 µM, first compound 10 µM). Moreover, the viability, T/C by setting is: (second compound 1 µM, first compound 0.0316 µM) 12.8%; (second compound 1 µM, first compound 0.1 µM) 9.76%; (second compound 1 µM, first compound 0.316 µM) 20.4%; (second compound 1 µM, first compound 1 µM) 14.9%; (second compound 1 µM, first compound 3.16 µM) 21.1%; (second compound 1 µM, first compound 10 µM) 17.1%. Also, the viability, T/C is 11.1% (second compound 3.16 µM, first compound 0.0316 µM); 11.2% (second compound 3.16 µM, first compound 0.1 µM); 13.9% (second compound 3.16 µM, first compound 0.316 µM); 12.8% (second compound 3.16 µM, first compound 1 µM); 13.4% (second compound 3.16 µM, first compound 3.16 µM); 10.1% (second compound 3.16 µM, first compound 10 µM). The viability, T/C runs as follows: (second compound 10 µM, first compound 0.0316 µM) 8.57%; (second compound 10 µM, first compound 0.1 µM) 9.75%; (second compound 10 µM, first compound 0.316 µM) 7.75%; (second compound 10 µM, first compound 1 µM) 10.5%; (second compound 10 µM, first compound 3.16 µM) 14.8%; (second compound 10 µM, first compound 10 µM) 11.7%.

Turning to `COc1cccc2c1C(=O)c1c(O)c3c(c(O)c1C2=O)CC(O)(C(=O)CO)CC3OC1CC(N)C(O)C(C)O1` (stereo not given), the viability, T/C runs as follows: (compound 0.0316 µM) 67.5% and 64.3% and 55.3%; (compound 0.1 µM) 16.6% and 19.5% and 22.7%; (compound 0.316 µM) 8.67% and 8.83% and 8.72%; (compound 1 µM) 3.86% and 4.47% and 4.45%; (compound 3.16 µM) 0.12% and 0.15% and 0.11%; (compound 10 µM) 0.59% and 1.33% and 0.9%. Also, the IC50 (curve of compound) is 47.2 nM and 45.8 nM and 37.9 nM.

In the case of `Cc1cnc(CNC(=O)c2c(=O)c3ccc(N4CCCN(C)CC4)nc3n3c2sc2ccccc23)cn1`, the viability, T/C by setting is: (compound 0.0316 µM) 71.2% [middle of 12 runs]; (compound 0.1 µM) 40.9% [middle of 12 runs]; (compound 0.316 µM) 27% [middle of 12 runs]; (compound 1 µM) 16.7% [middle of 12 runs]; (compound 3.16 µM) 11.6% [middle of 12 runs]; (compound 10 µM) 11.3% [middle of 12 runs]. In addition, under “compound alone, run of 03/18/2024”, the IC50 was 68.4 nM [middle of 11 runs].

As for `CC1COCCN1c1cc(C2(S(C)(=N)=O)CC2)nc(-c2ccnc3[nH]ccc23)n1` (stereo not given), the viability, T/C by setting is: (compound 0.0316 µM) 105% and 96.1% and 78.7%; (compound 0.1 µM) 73.3% and 84.4% and 94.9%; (compound 0.316 µM) 95.4% and 94.3% and 89.6%; (compound 1 µM) 59.5% and 44.8% and 50.7%; (compound 3.16 µM) 12.6% and 14.1% and 58.1%; (compound 10 µM) 7% and 6.85% and 8.5%. Also, where the note is “curve of compound”, the IC50 is 1260 nM and 881 nM and 2970 nM.

On to `CC(C)(O)C1CCC(Nc2ccc3ncc(-c4cccc(C(F)(F)F)c4)n3n2)CC1` (stereo not given), for which the viability, T/C (compound 0.0316 µM) was 109% and 102% and 93.8%; the viability, T/C (compound 0.1 µM) is 101% and 72.6% and 98.9%; the viability, T/C (compound 0.316 µM) is 104% and 94.5% and 96.9%; the viability, T/C (compound 1 µM) was 78.5% and 77.2% and 75.5%; the viability, T/C (compound 3.16 µM) is 27% and 35.3% and 27.6%; the viability, T/C (compound 10 µM) is 31.4% and 36.7% and 24.7%. The IC50 (curve of compound) is 1940 nM and 2140 nM and 1840 nM.
